Assay results reported in PMC5884943, “Discovery of Novel Inhibitors of Indoleamine 2,3-Dioxygenase 1 Through Structure-Based Virtual Screening” (Frontiers in Pharmacology, 2018).
Where two headings read alike, the source gives them in different places.

What was measured:
IDO1 = settings: Figure 1, published IDO1 inhibitors, cited from earlier work
IDO1 in HeLa cells = target: T1, IDO1 in HeLa cells (Homo sapiens, UniProt P14902); experiment: HeLa cellular IDO1 assay (kynurenine OD 480 nm after IFN-γ); assay type: cell-based; settings: IDO1 inhibition in HeLa cells, 48 h
T1 construct: endogenous in cells; host or cells: HeLa (ATCC CCL-2), stimulated with recombinant human IFN-γ
Procedure: We chose HeLa cell line (ATCC, Cat. No. CCL-2, 4965442) to detect whether our compounds could inhibit IDO activity at cellular level by optical density (OD) assay. The assay was performed in 96-well flat bottom plate (CORNING, Cat. No. 3903) seeded with 5,000 cells in a final volume of 100 μL. Each well 80 μL HeLa cells were incubated overnight at 37°C in EMEM (Invitrogen, Cat. No. 11095098) supplemented with 10% FBS (Invitrogen, Cat. No. 10099-141, Lot. No. 8153379). Then compounds that have been serial diluted were added in corresponding well and 10 μL Recombinant Human IFN-γF (Peprotech, Cat. No. 300-02) was added in each well except wells for Min (Medium containing 0.5% DMSO with cells). The mixture of cells were incubated at 37°C, 5% CO2 for 48 h. Then transferred 90 μL of supernatant to 96-well plate (CORNING, Cat. No. 3599) and store at −20°C fridge for colormetric analysis. The next day, 10 μL of 6.1 N trichloroacetic acid (Sigma, Cat. No. T0699) were added in each well after transferred 80 μL supernatant to 96-well plate (CORNING, Cat. No. 3894). Then the mixture was incubated at 50°C for 30 min. Sediments were removed by centrifuged for 10 min at 2,500 rpm. Seventy microliters of 70 μL of 2% (w/v) p-dimethylaminobenzaldehyde (Sigma-Aldrich, Cat. No. 15647-7) was added after 70 μL of the supernatant were transferred to assay plate (CORNING, Cat. No. 3635). Finally, OD-value was measured at 480 nm using an EnSpire (PE).

human IDO1 protein = target: T2, human IDO1 protein (Homo sapiens, UniProt P14902); experiment: Enzymatic IDO1 assay (Absorbance 321 assay); assay type: biochemical; settings: for inhibition at 20 µM: 20 μM compound, read-out: Inhibition ratio (%) @ 20 μM; for IC50: IDO1 enzymatic level
T2 construct: purchased ChemPartner Lot; No. 20160706
Procedure: The standard assay mixture contained modified potassium phosphate buffer at pH 6.5, 100 μM L-tryptophan (Sigma, Cat. […] No. […]). […] Then the assay plate was read at OD321 kinetically in Spectramax. […] Fit the data in […]5.0 software to obtain IC50-values using Equation (2): (2) Y=Bottom+Top-Bottom/1+10^(logIC50-X)×HillSlope where Y stands for inhibition percentage and X stands for compound concentration. All determinations were carried out in duplicate.

T2 sequence (P14902 whole entry): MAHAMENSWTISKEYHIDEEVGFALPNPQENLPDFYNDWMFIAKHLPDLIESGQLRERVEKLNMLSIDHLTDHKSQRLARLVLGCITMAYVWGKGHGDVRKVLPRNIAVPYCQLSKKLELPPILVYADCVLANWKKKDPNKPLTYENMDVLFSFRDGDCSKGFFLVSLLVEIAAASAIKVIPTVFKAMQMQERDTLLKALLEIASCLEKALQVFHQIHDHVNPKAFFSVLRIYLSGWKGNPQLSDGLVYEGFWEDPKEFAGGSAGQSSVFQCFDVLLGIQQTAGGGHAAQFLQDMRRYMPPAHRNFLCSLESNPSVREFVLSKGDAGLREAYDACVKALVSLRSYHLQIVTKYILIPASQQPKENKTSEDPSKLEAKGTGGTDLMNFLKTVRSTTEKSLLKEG
T1 sequence (P14902 whole entry): as above

SMILES	IC50 (IDO1 in HeLa cells) [µM]	inhibition at 20 µM (human IDO1 protein) [%]	IC50 (human IDO1 protein) [µM]	Hela / Cellular IC50 (IDO1 in HeLa cells)	IC50 (IDO1; ref Meininger et al., 2011) [µM]	IC50 (IDO1; ref Yue et al., 2009) [µM]
Cc1ccc(-c2csc3nnc(SCC(=O)Nc4ccc5c(c4)OCO5)n23)cc1 [Amg-1]					36	
Cc1ccc([N+](=O)[O-])cc1N1COc2ccc3ccccc3c2C1 [DC-I02804]	98.4	39.1	27.8			
CCOc1cc(C(=O)NC(=S)Nc2c(O)ccc3ccccc23)cc(OCC)c1OCC [DC-I02806]	18.2	75.3	18.7			

Now from value to compound, other results behind:

IC50 (IDO1 in HeLa cells) [µM]	inhibition at 20 µM (human IDO1 protein) [%]	IC50 (human IDO1 protein) [µM]	Hela / Cellular IC50 (IDO1 in HeLa cells)	SMILES	IC50 (IDO1; ref Meininger et al., 2011) [µM]	IC50 (IDO1; ref Yue et al., 2009) [µM]
	54.7	13.7	No activity	COc1ccc(C(=O)NC(=S)Nc2c(O)ccc3ccccc23)cc1Br [DC-I02805]		
46.4	61.3	17.9		O=C(NC(=S)Nc1c(O)ccc2ccccc12)c1ccccc1Br [DC-I02808]		
